# How the values were obtained:
# Phospholipase D1 = molecular target: T1, Phospholipase D1 (Homo sapiens, UniProt Q13393); experiment: Inhibition of PLD1 in human Calu1 cells; assay type: cell-based, Calu-1
# T1 sequence (Q13393 whole entry): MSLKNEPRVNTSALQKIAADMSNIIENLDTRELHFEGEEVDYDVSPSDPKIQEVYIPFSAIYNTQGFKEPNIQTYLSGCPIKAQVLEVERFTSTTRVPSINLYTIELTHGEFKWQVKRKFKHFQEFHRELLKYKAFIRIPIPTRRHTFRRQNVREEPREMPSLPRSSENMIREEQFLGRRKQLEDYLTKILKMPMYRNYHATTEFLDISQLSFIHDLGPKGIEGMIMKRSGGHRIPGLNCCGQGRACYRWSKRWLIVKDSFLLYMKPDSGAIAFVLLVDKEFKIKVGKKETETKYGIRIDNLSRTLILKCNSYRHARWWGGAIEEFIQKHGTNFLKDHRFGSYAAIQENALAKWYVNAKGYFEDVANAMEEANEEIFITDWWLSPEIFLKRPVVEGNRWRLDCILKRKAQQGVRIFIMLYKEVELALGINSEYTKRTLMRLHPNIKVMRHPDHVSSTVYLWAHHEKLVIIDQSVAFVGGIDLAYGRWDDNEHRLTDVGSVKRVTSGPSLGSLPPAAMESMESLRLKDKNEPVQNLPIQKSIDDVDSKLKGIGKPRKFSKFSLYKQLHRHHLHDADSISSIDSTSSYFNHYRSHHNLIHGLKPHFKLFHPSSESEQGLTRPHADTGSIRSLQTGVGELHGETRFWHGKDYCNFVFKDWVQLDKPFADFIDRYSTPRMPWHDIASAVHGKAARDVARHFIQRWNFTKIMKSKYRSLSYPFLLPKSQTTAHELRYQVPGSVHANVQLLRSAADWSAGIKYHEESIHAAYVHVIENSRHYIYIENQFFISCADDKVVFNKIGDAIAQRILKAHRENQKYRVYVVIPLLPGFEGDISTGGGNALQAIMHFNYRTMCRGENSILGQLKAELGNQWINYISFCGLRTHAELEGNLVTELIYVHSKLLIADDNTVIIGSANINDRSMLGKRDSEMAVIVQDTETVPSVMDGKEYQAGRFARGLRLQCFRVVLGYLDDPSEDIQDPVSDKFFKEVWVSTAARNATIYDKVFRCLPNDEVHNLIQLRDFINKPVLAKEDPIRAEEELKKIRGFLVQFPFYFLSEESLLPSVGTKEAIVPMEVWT
# Phospholipase D2 = Phospholipase D2 (Homo sapiens, UniProt O14939); experiment: Inhibition of GFP-labeled PLD2 in human HEK293 cells; assay type: cell-based
# Sequence of Phospholipase D2 (O14939 whole entry): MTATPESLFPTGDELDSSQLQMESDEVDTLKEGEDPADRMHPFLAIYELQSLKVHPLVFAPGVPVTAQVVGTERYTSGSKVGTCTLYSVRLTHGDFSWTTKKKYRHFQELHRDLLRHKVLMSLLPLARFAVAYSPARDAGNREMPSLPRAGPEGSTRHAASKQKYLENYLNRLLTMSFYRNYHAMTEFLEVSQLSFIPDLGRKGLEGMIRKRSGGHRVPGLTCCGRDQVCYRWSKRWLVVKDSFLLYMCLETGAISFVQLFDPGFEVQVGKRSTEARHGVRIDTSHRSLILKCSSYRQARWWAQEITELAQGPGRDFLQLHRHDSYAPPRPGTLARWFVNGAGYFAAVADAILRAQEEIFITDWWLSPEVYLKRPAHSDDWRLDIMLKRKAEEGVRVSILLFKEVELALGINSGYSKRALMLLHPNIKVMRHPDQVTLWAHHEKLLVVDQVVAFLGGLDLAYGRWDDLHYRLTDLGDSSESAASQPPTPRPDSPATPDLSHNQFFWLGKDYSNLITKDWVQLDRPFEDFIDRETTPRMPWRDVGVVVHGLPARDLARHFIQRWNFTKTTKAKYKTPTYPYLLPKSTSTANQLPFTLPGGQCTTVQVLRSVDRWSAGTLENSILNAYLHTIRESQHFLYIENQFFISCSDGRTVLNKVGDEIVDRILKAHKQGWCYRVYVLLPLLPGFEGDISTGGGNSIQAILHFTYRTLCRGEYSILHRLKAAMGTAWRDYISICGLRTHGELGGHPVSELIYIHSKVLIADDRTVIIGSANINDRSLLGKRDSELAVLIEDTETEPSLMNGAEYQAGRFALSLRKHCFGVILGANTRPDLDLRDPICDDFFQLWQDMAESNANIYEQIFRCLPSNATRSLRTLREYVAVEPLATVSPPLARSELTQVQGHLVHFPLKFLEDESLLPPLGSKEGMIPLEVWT
# HEK293 = experiment: Selectivity for PLD1 in human Calu1 cells over GFP-labeled PLD2 in human HEK293 cells; assay type: cell-based
Structure (SMILES),IC50 (Phospholipase D1),IC50 (Phospholipase D2),fold change (FC) (HEK293)
C[C@@H](CN1CCC2(CC1)C(=O)NCN2c1ccccc1)NC(=O)[C@H]1C[C@@H]1c1ccccc1,2600 nM,30000 nM,
O=C(NCCN1CCC(n2c(=O)[nH]c3ccccc32)CC1)c1ccc2ccccc2c1,,,> 1700
O=C(C#Cc1ccccc1)NCCN1CCC2(CC1)C(=O)NCN2c1ccccc1,2100 nM,1600 nM,
COc1cc(C(=O)NCCN2CCC3(CC2)C(=O)NCN3c2ccccc2)ccc1N,5900 nM,550 nM,
O=C(NCCN1CCC2(CC1)C(=O)NCN2c1ccccc1)c1ccc2ccccc2c1,,,9
O=C(NCCN1CCC2(CC1)C(=O)NCN2c1ccccc1)[C@H]1C[C@@H]1c1ccccc1 (relative stereo),> 20000 nM,> 20000 nM,
C[C@@H](CN1CCC2(CC1)C(=O)NCN2c1ccccc1)NC(=O)c1ccc(F)c(F)c1,150 nM,200 nM,
O=C(NCCN1CCC2(CC1)C(=O)NCN2c1ccccc1)c1cnc2ccccc2n1,> 20000 nM,> 20000 nM,
O=C(NCCN1CCC2(CC1)C(=O)NCN2c1ccccc1)c1cc2ccccc2s1,150 nM,30 nM,
Cc1cccc(C(=O)N[C@@H](C)CN2CCC3(CC2)C(=O)NCN3c2ccccc2)c1,3400 nM,27000 nM,

# Source: ChEMBL document CHEMBL1153994
